From publication PMC10514136, “Peptide-conjugated antimiRs improve myotonic dystrophy type 1 phenotypes by promoting endogenous MBNL1 expression” (Molecular Therapy. Nucleic Acids, 2023)
“And” between values parts separate entries of the source, which are not always exact repeats. Equal entries are not always repeated.

Experiments:
[1] = tested on: Nfix exon 7; test: Alternative splicing of Nfix exon 7 in muscle by RT-PCR (PSI, splice recovery); type: in vivo, mouse; details: HSALR mice, individual mice; for Percentage spliced-in (PSI) Nfix Gast: 9.2 mg/kg (mean) i.v. x3, day 45, gastrocnemius; for Percentage spliced-in (PSI) Nfix Quads: 9.2 mg/kg (mean) i.v. x3, day 45, quadriceps
Method: Total RNA from murine gastrocnemius and quadriceps muscle was isolated using the miRNeasy Mini Kit (QIAGEN, Hilden, Germany) according to the manufacturer’s instructions. One microgram of RNA was digested with DNase I (Invitrogen, Carlsbad, CA) and reverse transcribed with SuperScript II (Invitrogen) using random hexanucleotides. For subsequent PCR reactions, 20 ng of cDNA was used with GoTaq polymerase (Promega). Specific primers were used to analyze the alternative splicing of Nfix, Atp2a1, and Clcn1 in mouse samples (both muscles). Gapdh levels established the endogenous reference levels using 0.2 ng of cDNA. PCR products were separated on a 2% agarose gel and quantified using ImageJ software (NIH, Bethesda, MD). PSR index was defined as value%SI minus X¯%DSI , divided by X¯%DSI minus X¯%HSI (SI, splicing inclusion of each sample; DSI, disease splicing inclusion; HSI, healthy splicing inclusion). Overall, PSR indicates the amount in both muscles analyzed. Primer sequences and exons analyzed are available in Cerro-Herreros et al.[20] In the case of off-targets, interleukins, and muscle regeneration marker Mstn-1, primers sequences are available in Table S5. We used 1 ng of mouse tissue cDNA as a template for multiplex qPCR using the QuantiFast Probe PCR Kit reagent. Commercial TaqMan probes (QIAGEN) were used for mouse (Mbnl1 and Mbnl2; FAM-labeled probes) and reference (GAPDH; MAX-labeled probe) genes. Results were normalized to Gapdh endogenous gene expression.
We used homozygous transgenic HSA^LR (line 20 b) mice,[90] which were kindly provided by Dr Thornton (Rochester, NY) and were housed and bred in our animal facility. Experimental groups were FVB as healthy control and HSA^LR treated with a scrambled ON (SC) and PBS as negative controls, and HSA^LR mice treated with all six experimental CPP-PMOs. The mice were randomly allocated to the different treatments as follows: in each cage, each mouse was ear-marked as it was taken out, and each mouse was then assigned to a different treatment. […] Mice were sacrificed 45 days after the first injection and the tissues of interest were frozen in liquid nitrogen for the molecular and histological assays. All the mice used in this study ranged from 5 to 5.5 months of age and all were males.

[2] = tested on: MBNL1 protein levels in DM1 cells; test: MBNL1 protein levels by QDB in DM1 cells after gymnotic delivery; type: cell-based, human; details: for MBNL1 protein levels vs untreated DM1 cells: gymnosis at the EC50 concentration of each compound; for MBNL1 fold change: gymnotic delivery
Method: Immortalized MyoD-inducible (doxycycline) DM1 and control fibroblasts were kindly provided by Dr Furling (Institute of Myology, Paris, France).[38] For the activity assay, cells were seeded in 6-well plates at a density of 8 × 10^4 cells/well and grown in DMEM with 4.5 g/L glucose, 1% P/S, and 10% FBS (Sigma, St. Louis, MO). To transdifferentiate fibroblasts into myoblasts by inducing MyoD expression, the cells were plated in muscle differentiation medium containing DMEM with 4.5 g L^−1 glucose, 1% P/S, 2% horse serum, 1% apo-transferrin (10 mg mL^−1), 0.1% insulin (10 mg mL^−1), and 0.02% doxycycline (10 mg mL^−1). In all cases, the cells were grown at 37°C in a humidified atmosphere containing 5% CO2. Transdifferentiation was induced at day 0, and transfection was performed by lipofection with X-tremeGENE HP (Roche, Basel, Switzerland) 24 h later, with antimiRs and test compounds in the cell medium at different concentrations (from 0.4 nM to 5 μM). The medium was replaced with fresh differentiation medium 4 h afterward. In the gymnosis assay, test compounds were added to the culture medium only at the corresponding EC50 concentration. Cells were collected on day 4 of differentiation and were processed for protein extraction.
A 96-well plate QDB assay was used[87] to determine MBNL1 protein levels in all replicates and concentrations of each ON tested. This technique allows for high-throughput screening of low protein concentration samples over conventional western blot (WB) (Figure S9).[88] Cell samples (1 μg/well) and mice samples (2 μg/well) were prepared with 4× loading buffer, denatured (100°C for 5 min) and loaded in QDB plates (Quanticision Diagnostics, Research Triangle Park, NC). For the quantification of in vitro samples, the QDB was performed exactly as described in Moreno et al.[87] Each cell sample was loaded in quadruplicate in two different plates; one was used to detect MBNL1 (it was incubated overnight with primary mouse anti-MBNL1 [1:1,000, Abcam, ab77017]) and the other for GAPDH (it was incubated overnight with primary mouse anti-GAPDH [1:500, Santa Cruz, clone G-9]), which was used here as an endogenous control. For Mbnl1 quantification in mouse muscle tissues, we implemented the following modifications: each sample was loaded in quadruplicate on three different plates. One was used to detect Mbnl1 with a mouse MB1a(4A8) antibody (DSHB, Iowa City, IA) using a 1:200 dilution. A second plate was used to quantify tubulin (endogenous normalization control) with a mouse 12G10 antibody (DSHB) using a 1:1,000 dilution. A third plate was used to quantify IgG signal (negative control to subtract background) using an anti-mouse-IgG secondary antibody (Sigma-Aldrich) at 1:3,500 dilution. This subtraction was necessary due to an unspecific IgG signal could be observed in mouse samples (Figures S10A–S10D). All primary antibodies were detected using horseradish peroxidase-conjugated anti-mouse-IgG secondary antibody (1:5,000 for the anti-mouse plate, 1:2,000 for cell plates, and 1:3,500 for mouse plates [Sigma-Aldrich, MO]). Immunoreactive bands were detected using Pierce ECL Western reagent (Thermo Scientific), and luminescence levels were determined using an Infinite M200 PRO plate reader (Tecan). The validity of this correction for QDB quantification of mouse samples was confirmed by performing a series of experiments determining both the window of linearity of the assay (2–5 μg protein, Figures S10A–S10B) and the comparison with data obtained by WB in a subset of samples (Figures S10E–S10H), obtaining a correlation of 0.9927 for MBNL1 and 0.8678 for tubulin (in the case of quadriceps), and 0.9821 for MBNL1 and 0.9699 for tubulin (in gastrocnemius). For WB assay in quadriceps (Figure S10I), samples were loaded in pools of each treatment to have a representative WB of all the treatments tested. WB assay was performed as described previously.[20]

[3] = tested on: IL-1β, IL-6, MCP-1, IL-12β, TNF-α, IL-15, Mstn-1; test: Proinflammatory cytokines and Mstn-1 in quadriceps by qRT-PCR; type: in vivo, mouse
[4] = HSALR mice, 9.2 mg/kg (mean) i.v. x3, day 45, qRT-PCR

Substance	Percentage spliced-in (PSI) Nfix Gast [1]	Percentage spliced-in (PSI) Nfix Quads [1]	MBNL1 protein levels vs untreated DM1 cells [2]	Mstn-1 expression in quadriceps [3, 4]	other results
6aKC-23b (antisense GGUAAUCCCUGGCAAUGUGAU; all phosphorodiamidate morpholino (PMO), T or U not given here; Pip6aKC peptide conjugated)	63.59% and 47.55% and 61.79% and 62.43% and 69.22%	56.32% and 62.29% and 64.55% and 58.42% and 53.11%	significant increases observed in MBNL1 protein levels		MBNL1 fold change ([2]; 200 nM): ~2.5 fold
6aKC-218 (antisense ACAUGGUUAGAUCAAGCACAA; all phosphorodiamidate morpholino (PMO), T or U not given here; Pip6aKC peptide conjugated)	68.36% and 70.85% and 73.58% and 51.68% and 74.79%	52.44% and 62.29% and 52.77% and 89.96% and 66.72%	significant increases observed in MBNL1 protein levels		MBNL1 fold change ([2]; 1 μM): ~2 fold
9b2-23b (antisense GGUAAUCCCUGGCAAUGUGAU; all phosphorodiamidate morpholino (PMO), T or U not given here; Pip9b2 peptide conjugated)	55.08% and 63.11% and 66.38% and 63.52% and 47.66%	15.30% and 54.78% and 4.40% and 48.44% and 23.44%		downregulation of Mstn-1	IL1β Quads (2^-ddCt qPCR assays) ([3]; mouse, in vivo): 0.49; IL6 Quads (2^-ddCt qPCR assays) ([3]; mouse, in vivo): 0.39; IL12β Quads (2^-ddCt qPCR assays) ([3]; mouse, in vivo): 0.57; IL15 Quads (2^-ddCt qPCR assays) ([3]; mouse, in vivo): 2.25; MCP-1 Quads (2^-ddCt qPCR assays) ([3]; mouse, in vivo): 0.55; TNF-α Quads (2^-ddCt qPCR assays) ([3]; mouse, in vivo): 0.26
9b2-218 (antisense ACAUGGUUAGAUCAAGCACAA; all phosphorodiamidate morpholino (PMO), T or U not given here; Pip9b2 peptide conjugated)	58.31% and 29.97% and 59.09% and 66.06% and 69.09%	30.95% and 10.51% and 43.26% and 15.39% and 35.59%	significant increases observed in MBNL1 protein levels		
9b2KC-23b (antisense GGUAAUCCCUGGCAAUGUGAU; all phosphorodiamidate morpholino (PMO), T or U not given here; Pip9b2KC peptide conjugated)	45.55% and 53.38% and 57.04% and 62.73% and 57.17%	54.10% and 56.90% and 66.58% and 51.62% and 56.46%		downregulation of Mstn-1	MBNL1 levels, gymnosis compared with transfection ([2]; each compound at its EC50 concentration): identical MBNL1 modulation results by transfection and gymnosis
9b2KC-218 (antisense ACAUGGUUAGAUCAAGCACAA; all phosphorodiamidate morpholino (PMO), T or U not given here; Pip9b2KC peptide conjugated)	66.68% and 66.91% and 60.18% and 67.84% and 62.07%	48.85% and 67.46% and 51.19% and 51.94% and 21.60%			
TCTTACCTCAGTTACAATTTA-Pip9b2 [Scramble, reference compound]	62.98% and 52.74% and 55.70% and 81.00% and 76.46%	60.30% and 80.52% and 66.59% and 72.38% and 72.49%		not detected	IL-6 and IL-15 expression in quadriceps [3, 4]: reduced levels of IL-6 and IL-15
